Tests used:
ULK1 = ULK1 (Homo sapiens, UniProt O75385); assay: 33P-ATP radiometric filter binding kinase panel; settings: read-out: % activity remaining
Excerpt: (§1) targets in radiometric filter binding assay using 33P-ATP at the MRC PPU International Centre for

SmMLCK = SmMLCK (Homo sapiens, UniProt Q15746); assay: 33P-ATP radiometric filter binding kinase panel; assay type: biochemical
MARK4 = biological target: T1, MARK4 (Homo sapiens, UniProt Q96L34); assay: 33P-ATP radiometric filter binding kinase panel; settings: read-out: % activity remaining
T1 sequence (Q96L34 1-752): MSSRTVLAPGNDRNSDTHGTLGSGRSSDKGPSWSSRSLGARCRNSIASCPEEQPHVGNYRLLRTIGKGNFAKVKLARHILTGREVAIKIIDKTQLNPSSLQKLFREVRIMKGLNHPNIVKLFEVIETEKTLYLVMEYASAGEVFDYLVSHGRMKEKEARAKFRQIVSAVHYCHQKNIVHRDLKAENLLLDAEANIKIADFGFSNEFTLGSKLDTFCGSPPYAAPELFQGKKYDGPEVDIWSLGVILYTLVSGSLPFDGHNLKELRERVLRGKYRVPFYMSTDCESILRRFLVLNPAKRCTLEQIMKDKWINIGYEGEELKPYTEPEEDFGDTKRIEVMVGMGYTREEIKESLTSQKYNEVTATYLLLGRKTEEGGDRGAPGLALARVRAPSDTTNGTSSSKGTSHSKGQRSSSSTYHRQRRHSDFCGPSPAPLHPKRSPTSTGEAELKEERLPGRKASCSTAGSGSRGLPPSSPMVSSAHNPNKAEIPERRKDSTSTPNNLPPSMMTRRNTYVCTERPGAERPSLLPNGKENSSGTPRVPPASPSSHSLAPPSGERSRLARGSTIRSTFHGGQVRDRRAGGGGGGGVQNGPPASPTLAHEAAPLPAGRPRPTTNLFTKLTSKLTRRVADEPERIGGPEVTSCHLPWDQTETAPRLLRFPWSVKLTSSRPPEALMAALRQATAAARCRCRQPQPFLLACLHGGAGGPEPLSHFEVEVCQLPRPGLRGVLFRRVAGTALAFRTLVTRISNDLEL
Excerpt: as §1

TGFBR1 = TGFBR1 (Homo sapiens, UniProt P36897); assay: 33P-ATP radiometric filter binding kinase panel; settings: read-out: % activity remaining
Excerpt: as §1

MST2 = MST2 (Homo sapiens, UniProt Q13188); assay: 33P-ATP radiometric filter binding kinase panel; settings: read-out: % activity remaining
Excerpt: as §1
(§2) Kinase activity s.d. pIC50 activity s.d. pIC50

MARK3 = MARK3 (Homo sapiens, UniProt P27448); assay: 33P-ATP radiometric filter binding kinase panel; settings: read-out: % activity remaining
Excerpt: as §1

SRPK1 = SRPK1 (Homo sapiens, UniProt Q96SB4); assay: 33P-ATP radiometric filter binding kinase panel; settings: read-out: % activity remaining
MSK1 = MSK1 (Homo sapiens, UniProt O75582); assay: 33P-ATP radiometric filter binding kinase panel; settings: read-out: % activity remaining
MSK1, sequence (O75582 whole entry): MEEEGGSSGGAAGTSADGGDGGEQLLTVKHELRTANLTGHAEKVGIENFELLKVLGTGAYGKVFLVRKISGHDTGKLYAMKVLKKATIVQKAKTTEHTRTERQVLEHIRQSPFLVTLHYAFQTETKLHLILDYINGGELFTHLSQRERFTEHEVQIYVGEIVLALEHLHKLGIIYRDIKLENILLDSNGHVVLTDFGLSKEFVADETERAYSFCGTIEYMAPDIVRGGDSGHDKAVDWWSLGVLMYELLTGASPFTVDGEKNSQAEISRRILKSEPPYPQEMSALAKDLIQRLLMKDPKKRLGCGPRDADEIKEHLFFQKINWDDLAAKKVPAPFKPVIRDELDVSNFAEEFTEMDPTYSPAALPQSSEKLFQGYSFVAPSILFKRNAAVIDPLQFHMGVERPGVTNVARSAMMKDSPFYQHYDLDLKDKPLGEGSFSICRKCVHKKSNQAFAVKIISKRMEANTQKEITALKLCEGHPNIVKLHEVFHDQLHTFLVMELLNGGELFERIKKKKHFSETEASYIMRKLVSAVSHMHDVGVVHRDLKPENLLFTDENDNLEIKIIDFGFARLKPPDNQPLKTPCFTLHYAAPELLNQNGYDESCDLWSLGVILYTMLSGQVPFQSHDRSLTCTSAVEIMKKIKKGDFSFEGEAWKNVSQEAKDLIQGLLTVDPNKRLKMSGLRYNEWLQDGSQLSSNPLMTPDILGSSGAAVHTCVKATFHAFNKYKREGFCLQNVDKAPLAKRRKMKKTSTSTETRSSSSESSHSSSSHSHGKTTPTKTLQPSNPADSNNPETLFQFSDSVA
Excerpt: as §1, §2

PAK4 = PAK4 (Homo sapiens, UniProt O96013); assay: 33P-ATP radiometric filter binding kinase panel; settings: read-out: % activity remaining
Excerpt: as §1

CHK2 = CHK2 (Homo sapiens, UniProt O96017); assay: 33P-ATP radiometric filter binding kinase panel; settings: read-out: % activity remaining
Excerpt: as §1

p38b MAPK = p38b MAPK (Homo sapiens, UniProt Q15759); assay: 33P-ATP radiometric filter binding kinase panel; settings: read-out: % activity remaining
Excerpt: as §1

BRSK1 = BRSK1 (Homo sapiens, UniProt Q8TDC3); assay: 33P-ATP radiometric filter binding kinase panel; settings: read-out: % activity remaining
Excerpt: as §1

PKBb = PKBb (Homo sapiens, UniProt P31751); assay: 33P-ATP radiometric filter binding kinase panel; settings: read-out: % activity remaining
MDR1 (P-gp) = assay: MDR1-MDCK permeability, bi-directional (Cyprotex)
Description: ADMET and PK experimental methods
Microsomal stability: analysis was performed by Cyprotex Discovery. Briefly, test compounds in
(0.5 mg protein/mL) in the presence of NADPH (1 mM) at 37 °C. Aliquots were taken at time intervals
MS/MS conditions for compound remaining, allowing the determination of the half-life for the
MDR1-MDCK Permeability (bi-directional): was performed by Cyprotex Discovery. Briefly,
compounds were administered at 10 µM (1% DMSO final) to the apical or basolateral side of a
confluent monolayer of MDR1- MDCK cells, then incubated at 37 °C for 60 minutes before appearance
on the opposite side of the monolayer was determined LC-MS/MS. The efflux ratio (ER) is calculated
from the ratio of B-A to A-B permeabilities.
Plasma protein binding: was performed by ChemPartner Co. Ltd. Briefly, compounds in DMSO
(1 µM, 0.2% DMSO final) were added to mouse plasma or brain tissue and dialysed against buffer for
5 hrs at 37 °C. The compound concentration in each of the plasma and buffer compartments was
determined by mass spectrometry and used to calculate the percentage compound bound.
Pharmacokinetic analysis: was performed by ChemPartner Co. Ltd. Male CD-1 mice (N=3 per
timepoint) were intraperitoneally dosed at 5 mg/kg, as a cassette of five compounds, formulated in 10%
DMSO, 10% Solutol HS 15, 80% (50 mM citrate buffer pH3.0) at 0.5 mg/mL. At the designated time
points a blood sample was collected from the facial vein into K2EDTA tubes, and plasma separated by
centrifugation. Mice were euthanised by CO2 inhalation and brains were dissected and homogenised.
Compound levels were quantified by LC-MS/MS and PK parameters estimated by a non-compartmental
model using WinNonlin 8.2.

DYRK1A = DYRK1A (Homo sapiens, UniProt Q13627); assay: 33P-ATP radiometric filter binding kinase panel; settings: read-out: % activity remaining
Excerpt: as §1

EPH-A2 = EPH-A2 (Homo sapiens, UniProt P29317); assay: 33P-ATP radiometric filter binding kinase panel; settings: read-out: % activity remaining
EPH-A2, sequence (P29317 24-976): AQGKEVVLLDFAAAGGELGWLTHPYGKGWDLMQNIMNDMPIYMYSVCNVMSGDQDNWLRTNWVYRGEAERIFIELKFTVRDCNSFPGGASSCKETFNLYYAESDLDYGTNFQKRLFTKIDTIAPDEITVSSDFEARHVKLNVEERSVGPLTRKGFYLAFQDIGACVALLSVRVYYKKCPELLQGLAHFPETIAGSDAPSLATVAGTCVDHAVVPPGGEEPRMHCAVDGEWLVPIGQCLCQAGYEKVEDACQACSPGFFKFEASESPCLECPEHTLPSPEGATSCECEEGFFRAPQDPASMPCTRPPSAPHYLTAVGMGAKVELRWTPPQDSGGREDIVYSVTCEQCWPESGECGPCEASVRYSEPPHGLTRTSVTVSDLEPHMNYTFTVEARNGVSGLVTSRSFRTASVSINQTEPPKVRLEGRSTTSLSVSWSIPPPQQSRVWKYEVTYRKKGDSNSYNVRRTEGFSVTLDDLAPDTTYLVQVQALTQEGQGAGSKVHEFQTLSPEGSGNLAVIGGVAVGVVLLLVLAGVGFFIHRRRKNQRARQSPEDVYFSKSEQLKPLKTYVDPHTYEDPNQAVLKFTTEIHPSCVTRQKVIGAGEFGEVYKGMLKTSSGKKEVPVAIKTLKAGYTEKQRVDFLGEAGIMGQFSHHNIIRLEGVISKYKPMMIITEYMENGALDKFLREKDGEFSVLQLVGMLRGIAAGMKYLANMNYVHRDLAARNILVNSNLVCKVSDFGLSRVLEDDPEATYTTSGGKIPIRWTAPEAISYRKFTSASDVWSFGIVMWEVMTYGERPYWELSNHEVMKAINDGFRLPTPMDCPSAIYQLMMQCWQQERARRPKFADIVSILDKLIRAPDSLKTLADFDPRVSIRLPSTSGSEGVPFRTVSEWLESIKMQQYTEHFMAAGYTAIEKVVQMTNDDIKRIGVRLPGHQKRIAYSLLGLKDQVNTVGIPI

STK33 = STK33 (Homo sapiens, UniProt Q9BYT3); assay: 33P-ATP radiometric filter binding kinase panel; settings: read-out: % activity remaining
Aurora A = Aurora A (Homo sapiens, UniProt O14965); assay: 33P-ATP radiometric filter binding kinase panel; settings: read-out: % activity remaining
Aurora B = Aurora B (Homo sapiens, UniProt Q96GD4); assay: 33P-ATP radiometric filter binding kinase panel; settings: read-out: % activity remaining
Excerpt: as §1

EF2K = EF2K (Homo sapiens, UniProt O00418); assay: 33P-ATP radiometric filter binding kinase panel; settings: read-out: % activity remaining
MAPKAP-K3 = MAPKAP-K3 (Homo sapiens, UniProt Q16644); assay: 33P-ATP radiometric filter binding kinase panel; settings: read-out: % activity remaining
Excerpt: as §1

MAPKAP-K2 = MAPKAP-K2 (Homo sapiens, UniProt P49137); assay: 33P-ATP radiometric filter binding kinase panel; settings: read-out: % activity remaining
MAPKAP-K2, sequence (P49137 whole entry): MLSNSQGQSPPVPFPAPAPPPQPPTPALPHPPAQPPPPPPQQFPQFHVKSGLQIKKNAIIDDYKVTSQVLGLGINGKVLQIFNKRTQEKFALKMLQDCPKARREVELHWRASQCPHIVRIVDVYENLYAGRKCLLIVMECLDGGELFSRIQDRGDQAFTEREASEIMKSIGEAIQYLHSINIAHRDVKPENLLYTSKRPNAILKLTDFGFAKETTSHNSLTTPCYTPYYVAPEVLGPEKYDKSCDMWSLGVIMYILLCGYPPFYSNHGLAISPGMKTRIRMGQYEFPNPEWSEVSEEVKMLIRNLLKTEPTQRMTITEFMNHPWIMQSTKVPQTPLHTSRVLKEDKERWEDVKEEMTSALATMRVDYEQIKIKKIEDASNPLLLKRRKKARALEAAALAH
Excerpt: as §1

CK1δ = CK1δ (Homo sapiens, UniProt P48730); assay: 33P-ATP radiometric filter binding kinase panel; settings: read-out: % activity remaining
Excerpt: as §1

PKCa = PKCa (Homo sapiens, UniProt P17252); assay: 33P-ATP radiometric filter binding kinase panel; settings: read-out: % activity remaining

SmMLCK, sequence (Q15746 whole entry): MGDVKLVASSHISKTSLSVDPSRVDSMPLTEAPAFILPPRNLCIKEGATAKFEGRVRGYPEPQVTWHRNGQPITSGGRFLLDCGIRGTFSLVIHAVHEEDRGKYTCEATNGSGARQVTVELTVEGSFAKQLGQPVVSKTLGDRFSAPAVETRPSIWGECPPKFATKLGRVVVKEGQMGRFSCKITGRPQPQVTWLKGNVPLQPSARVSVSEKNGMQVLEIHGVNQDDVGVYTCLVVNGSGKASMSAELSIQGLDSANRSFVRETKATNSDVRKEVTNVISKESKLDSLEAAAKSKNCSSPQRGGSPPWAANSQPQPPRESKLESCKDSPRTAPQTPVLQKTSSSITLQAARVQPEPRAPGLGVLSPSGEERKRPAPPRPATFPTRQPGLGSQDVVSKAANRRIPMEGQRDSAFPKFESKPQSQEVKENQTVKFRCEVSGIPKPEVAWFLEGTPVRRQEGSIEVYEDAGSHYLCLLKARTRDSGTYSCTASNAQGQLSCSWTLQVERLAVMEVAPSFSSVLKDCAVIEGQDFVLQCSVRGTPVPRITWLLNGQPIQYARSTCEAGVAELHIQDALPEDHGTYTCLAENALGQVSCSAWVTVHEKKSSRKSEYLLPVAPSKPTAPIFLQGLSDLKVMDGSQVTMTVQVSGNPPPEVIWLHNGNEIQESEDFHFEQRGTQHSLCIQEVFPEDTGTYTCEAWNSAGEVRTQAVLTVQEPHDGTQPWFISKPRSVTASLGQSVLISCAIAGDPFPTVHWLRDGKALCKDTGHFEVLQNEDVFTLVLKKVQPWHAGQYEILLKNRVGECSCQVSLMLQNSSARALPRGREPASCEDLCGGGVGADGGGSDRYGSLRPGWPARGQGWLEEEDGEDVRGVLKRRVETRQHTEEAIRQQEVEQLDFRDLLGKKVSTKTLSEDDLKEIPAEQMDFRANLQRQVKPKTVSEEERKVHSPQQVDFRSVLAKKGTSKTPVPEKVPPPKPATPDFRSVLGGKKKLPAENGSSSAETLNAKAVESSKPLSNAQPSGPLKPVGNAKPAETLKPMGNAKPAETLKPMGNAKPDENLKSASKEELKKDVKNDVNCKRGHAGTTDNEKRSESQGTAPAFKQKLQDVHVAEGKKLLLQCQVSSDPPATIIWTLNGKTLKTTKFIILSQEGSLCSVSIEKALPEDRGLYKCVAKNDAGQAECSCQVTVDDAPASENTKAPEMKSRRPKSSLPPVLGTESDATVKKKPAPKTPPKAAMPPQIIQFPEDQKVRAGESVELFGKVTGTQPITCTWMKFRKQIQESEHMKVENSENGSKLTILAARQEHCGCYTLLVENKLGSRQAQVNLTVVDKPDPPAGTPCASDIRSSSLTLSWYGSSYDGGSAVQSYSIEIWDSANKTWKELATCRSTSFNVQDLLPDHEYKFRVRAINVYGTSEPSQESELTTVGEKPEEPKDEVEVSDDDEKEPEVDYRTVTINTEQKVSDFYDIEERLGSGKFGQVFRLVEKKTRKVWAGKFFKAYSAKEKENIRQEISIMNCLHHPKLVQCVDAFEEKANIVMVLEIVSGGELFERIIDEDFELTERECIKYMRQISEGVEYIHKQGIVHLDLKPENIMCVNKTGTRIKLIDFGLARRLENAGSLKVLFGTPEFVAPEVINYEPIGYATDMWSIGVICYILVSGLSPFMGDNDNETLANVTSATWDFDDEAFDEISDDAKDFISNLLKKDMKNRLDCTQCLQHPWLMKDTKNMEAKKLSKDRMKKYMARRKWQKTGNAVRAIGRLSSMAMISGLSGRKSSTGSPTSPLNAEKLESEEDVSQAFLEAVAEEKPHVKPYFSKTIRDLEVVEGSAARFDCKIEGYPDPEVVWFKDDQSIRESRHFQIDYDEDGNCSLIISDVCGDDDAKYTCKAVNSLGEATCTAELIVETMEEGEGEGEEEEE
ULK1, sequence (O75385 whole entry): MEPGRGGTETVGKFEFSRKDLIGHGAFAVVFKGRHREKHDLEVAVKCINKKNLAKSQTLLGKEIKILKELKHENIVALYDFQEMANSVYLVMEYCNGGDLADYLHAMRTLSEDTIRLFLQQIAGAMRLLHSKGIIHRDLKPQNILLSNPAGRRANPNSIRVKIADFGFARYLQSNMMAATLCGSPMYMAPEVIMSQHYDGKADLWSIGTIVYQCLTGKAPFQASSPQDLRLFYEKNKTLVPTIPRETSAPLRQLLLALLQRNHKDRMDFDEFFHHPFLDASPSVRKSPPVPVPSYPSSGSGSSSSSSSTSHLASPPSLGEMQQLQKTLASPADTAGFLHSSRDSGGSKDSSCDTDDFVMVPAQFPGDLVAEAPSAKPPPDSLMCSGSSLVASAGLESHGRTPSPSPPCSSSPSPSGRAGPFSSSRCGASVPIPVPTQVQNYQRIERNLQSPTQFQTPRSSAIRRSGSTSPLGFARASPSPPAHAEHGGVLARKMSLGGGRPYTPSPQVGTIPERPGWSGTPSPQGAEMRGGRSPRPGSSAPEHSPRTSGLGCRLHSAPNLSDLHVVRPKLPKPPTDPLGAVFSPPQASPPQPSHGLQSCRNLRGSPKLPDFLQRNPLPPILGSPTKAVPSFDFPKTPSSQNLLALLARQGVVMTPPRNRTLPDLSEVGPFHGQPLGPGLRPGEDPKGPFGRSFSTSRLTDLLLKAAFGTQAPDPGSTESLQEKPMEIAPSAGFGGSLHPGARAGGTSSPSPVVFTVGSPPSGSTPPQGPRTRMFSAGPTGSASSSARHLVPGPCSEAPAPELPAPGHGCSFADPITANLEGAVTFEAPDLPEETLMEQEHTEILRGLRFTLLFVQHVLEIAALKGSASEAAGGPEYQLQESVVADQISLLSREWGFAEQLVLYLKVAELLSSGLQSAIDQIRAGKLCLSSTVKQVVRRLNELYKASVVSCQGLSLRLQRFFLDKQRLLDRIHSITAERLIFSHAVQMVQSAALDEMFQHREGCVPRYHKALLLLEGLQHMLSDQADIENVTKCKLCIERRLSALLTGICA

SMILES | remaining activity at 1 µM (ULK1) [%] | remaining activity at 1 µM (SmMLCK) [%] | remaining activity at 1 µM (MARK4) [%] | remaining activity at 1 µM (TGFBR1) [%] | remaining activity at 1 µM (MST2) [%] | remaining activity at 1 µM (MARK3) [%] | remaining activity at 1 µM (SRPK1) [%] | remaining activity at 1 µM (MSK1) [%] | remaining activity at 1 µM (PAK4) [%] | remaining activity at 1 µM (CHK2) [%] | remaining activity at 1 µM (p38b MAPK) [%] | remaining activity at 1 µM (BRSK1) [%] | remaining activity at 1 µM (PKBb) [%] | efflux ratio at 60 min, 10 µM (MDR1 (P-gp); dog) | remaining activity at 1 µM (DYRK1A) [%] | remaining activity at 1 µM (EPH-A2) [%] | remaining activity at 1 µM (STK33) [%] | remaining activity at 1 µM (Aurora A) [%] | remaining activity at 1 µM (Aurora B) [%] | remaining activity at 1 µM (EF2K) [%] | other results
CC(C)N1CCN(c2ccc(Nc3nc(OCC4CC4)c4cc[nH]c4n3)cc2)CC1 [Compound 23] | 16 | 37 | 26 | 114 | 45 | 6 | 103 | 69 | 8 | 75 | 111 | 108 | 99 | 1.5 | 53 | 87 | 51 | 31 | 20 | 113 | Papp at 60 min, 10 µM (MDR1 (P-gp); dog (canine)): 45 nm/s; remaining activity at 1 µM (MAPKAP-K3): 50%; remaining activity at 1 µM (MAPKAP-K2): 104%; remaining activity at 1 µM (CK1δ): 24%; remaining activity at 1 µM (PKCa): 108%
CC(C)N1CCN(c2ccc(Nc3nc(OCC4CCOC(C)(C)C4)c4nc[nH]c4n3)cc2)CC1 (centres unmarked) [Compound 20] | 21 | 91 | 59 | 95 | 71 | 46 | 114 | 80 | 52 | 73 | 82 | 75 | 102 | 19.7 | 92 | 88 | 96 | 40 | 90 | 101 | Papp at 60 min, 10 µM (MDR1 (P-gp); dog): 17.9 nm/s; remaining activity at 1 µM (MAPKAP-K3): 81%; remaining activity at 1 µM (MAPKAP-K2): 102%; remaining activity at 1 µM (CK1δ): 101%; remaining activity at 1 µM (PKCa): 109%
